Measurements as given in article PMC3147293 (Cell host & microbe, 2011).
“Also recorded” adds a separate entry of the source. Where no end group is shown, it is not given here.

Columns and labels:
[1] = target: CPAF (Chlamydia trachomatis serovar D, UniProt O84866); assay: HPLC assay of CPAF cleavage of Abz-tagged vimentin-derived peptide; type: biochemical
[2] = test system: Chlamydia-infected HeLa cells; assay: Death of infected HeLa cells by flow cytometry of PI-stained cells; type: cell-based; conditions: anti-CPAF peptide at 12 hpi, with/without 40μM Z-VAD-FMK at 3 hpi
[3] = test system: recombinant CPAF; conditions: ~40 ng CPAF, 48μg GST-tagged Chlamydia proteins, 37°C, 20 min; Coomassie
[4] = test system: proteasome; assay: Proteasome function in uninfected cells; type: cell-based; conditions: data not shown
[5] = test system: uninfected cells; assay: Toxicity in uninfected cells; type: cell-based; conditions: data not shown

CPAF, sequence (O84866 276-601): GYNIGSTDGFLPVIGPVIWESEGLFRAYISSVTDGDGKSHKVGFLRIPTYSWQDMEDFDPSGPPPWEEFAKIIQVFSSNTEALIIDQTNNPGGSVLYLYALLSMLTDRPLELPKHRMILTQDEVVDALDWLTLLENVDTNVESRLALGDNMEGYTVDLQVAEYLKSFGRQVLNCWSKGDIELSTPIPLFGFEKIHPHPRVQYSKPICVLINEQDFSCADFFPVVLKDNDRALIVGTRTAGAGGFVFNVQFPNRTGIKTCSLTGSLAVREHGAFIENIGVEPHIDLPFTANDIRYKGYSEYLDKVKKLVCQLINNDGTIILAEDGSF
CPAF, sequence (O84866 24-234): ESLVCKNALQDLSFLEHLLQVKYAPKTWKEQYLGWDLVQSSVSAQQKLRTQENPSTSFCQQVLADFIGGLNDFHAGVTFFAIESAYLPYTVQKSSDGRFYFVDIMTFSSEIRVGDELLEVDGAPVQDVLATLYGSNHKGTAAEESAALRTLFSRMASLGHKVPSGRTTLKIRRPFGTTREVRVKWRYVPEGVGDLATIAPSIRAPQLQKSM

| Molecule | IC50 [1] [µM] | death of infected cells (PI staining) [2] | inhibition of cleavage of GST-tagged substrates by recombinant CPAF [3] | alteration of proteasome function in uninfected cells [4] | toxicity in uninfected cells [5] |
| --- | --- | --- | --- | --- | --- |
| CC(=O)N[C@@H](CSC(=O)[C@]1([C@@H](O)C(C)C)NC(=O)[C@H](C)[C@@H]1O)C(=O)O [Lactacystin, lactacystin, reference compound] | 10 | – | – | – | – |
| NFALSHFRLPLSTYKEMPYVSHWAGRRRRRRRRR [scrambled control peptide] | – | PI staining was not seen | but not a scrambled control peptide; also recorded: but not the scrambled control peptide | – | – |
| SLFYSPMVPHFWAELRNHYATSGLKRRRRRRRRR [anti-CPAF peptide] | 0.05 | – | – | did not induce any obvious toxicity or alter proteasome function in uninfected cells | did not induce any obvious toxicity |
